8 molecules from PubChem BioAssay (NCI) can be followed below.

Some test systems named below: SK-MEL-28 melanoma; EKVX NSCLC; SF-539 CNS; OVCAR-8 ovarian; SNB-19 CNS; SF-268 CNS; SR leukemia; SN12C renal; OVCAR-5 ovarian; M14 melanoma; OVCAR-4 ovarian; HCT-116 colon; SK-MEL-5 melanoma; OVCAR-3 ovarian; SF-295 CNS; NCI-H460 lung; SNB-75 CNS; HOP-62 NSCLC; KM12 colon; HCC-2998 colon.
What all share (assay): inhibition of tumour cell growth, NCI panel, 48 h

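Five concentrations, 48 hours, 96-well plates. TGI is the concentration that stops growth completely.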

On to `Cc1ccc(Nc2nc(NS(=O)(=O)c3cc(C(=O)Nc4ccc(Cl)cc4)c(Cl)cc3S)n[nH]2)cc1`, for which the TGI with SK-MEL-28 melanoma, in the test on EKVX NSCLC, with SF-539 CNS, with OVCAR-8 ovarian, with SNB-19 CNS and in the test on SF-268 CNS was > 100 µM in each case. The TGI with SR leukemia, in the test on SN12C renal, in the test on OVCAR-5 ovarian, in the test with M14 melanoma, with OVCAR-4 ovarian and in the test on HCT-116 colon was > 100 µM throughout. Moreover, the TGI in the test with SK-MEL-5 melanoma, in the test on OVCAR-3 ovarian, in the test on SF-295 CNS, with NCI-H460 lung, in the test with SNB-75 CNS and with HOP-62 NSCLC was > 100 µM throughout. Also, the TGI in the test on KM12 colon was > 100 µM.
For `NC(=S)N/N=C1\c2ccccc2CCC1CCC1(O)CCc2ccccc2C1=O` (stereo unspecified), the TGI is 45.8 µM in the test on SK-MEL-28 melanoma; 59.5 µM with EKVX NSCLC; 29.5 µM in the test with SF-539 CNS; 35.1 µM with OVCAR-8 ovarian; > 100 µM in the test on SNB-19 CNS; > 100 µM in the test with SF-268 CNS. Also, the TGI was > 100 µM in the test with SR leukemia; 39.8 µM in the test on SN12C renal; 74.2 µM with OVCAR-5 ovarian; 38 µM with M14 melanoma; > 100 µM in the test on OVCAR-4 ovarian; 40.2 µM with HCT-116 colon. Also, the TGI in the test with SK-MEL-5 melanoma was 28.3 µM; in the test with OVCAR-3 ovarian, 36.3 µM; with SF-295 CNS, 59 µM; in the test with NCI-H460 lung it was 32.1 µM; in the test with SNB-75 CNS it was 45 µM; with HOP-62 NSCLC it was > 100 µM. Also, the TGI in the test on KM12 colon is > 100 µM.
Consider `COc1ccc(-c2c3c(nc4nc(SC)nc(SC)c24)CCCC3)cc1OC`, for which the TGI in the test with SK-MEL-28 melanoma is > 100 µM; with EKVX NSCLC, > 100 µM; in the test on SF-539 CNS, > 100 µM; with SNB-19 CNS it was > 100 µM; in the test on SF-268 CNS it was > 100 µM; in the test with SR leukemia it was 46.4 µM. In addition, the TGI in the test on HCC-2998 colon, in the test on SN12C renal, in the test with OVCAR-5 ovarian, with M14 melanoma, in the test on HCT-116 colon and in the test with SK-MEL-5 melanoma was > 100 µM each time. The TGI in the test on OVCAR-3 ovarian, with SF-295 CNS, in the test with NCI-H460 lung, with SNB-75 CNS, in the test on HOP-62 NSCLC and in the test on KM12 colon was > 100 µM each time.
`CCc1nnc(-c2nsc3ccccc23)s1`: the TGI with SK-MEL-28 melanoma, with EKVX NSCLC, in the test with SF-539 CNS, in the test with OVCAR-8 ovarian, in the test on SNB-19 CNS and in the test with SF-268 CNS was > 100 µM each time. Besides, the TGI in the test on SR leukemia, in the test on HCC-2998 colon, in the test with SN12C renal, in the test with OVCAR-5 ovarian, in the test on M14 melanoma and in the test on OVCAR-4 ovarian was > 100 µM each time. Besides, the TGI in the test on HCT-116 colon, in the test on SK-MEL-5 melanoma, with OVCAR-3 ovarian, in the test on NCI-H460 lung, in the test with SNB-75 CNS and in the test on HOP-62 NSCLC was > 100 µM each time. For the same molecule, in the test with KM12 colon, the TGI was > 100 µM.
`O=C(NN1C(=O)CSC1c1ccc(C(F)(F)F)cc1)c1ccncc1` (stereo unspecified): the TGI in the test on SK-MEL-28 melanoma, with EKVX NSCLC, in the test on SF-539 CNS, in the test on OVCAR-8 ovarian, with SNB-19 CNS and with SF-268 CNS was > 100 µM each time. Further, the TGI in the test on HCC-2998 colon, in the test on SN12C renal, with OVCAR-5 ovarian, in the test on OVCAR-4 ovarian, in the test on HCT-116 colon and in the test with SK-MEL-5 melanoma was > 100 µM throughout. Besides, the TGI in the test with OVCAR-3 ovarian, in the test with SF-295 CNS, with NCI-H460 lung, in the test with SNB-75 CNS, in the test with HOP-62 NSCLC and in the test on KM12 colon was > 100 µM in each case.
For the molecule `CC(c1ccccc1)/[N+]([O-])=C/c1ccccc1` (stereo unspecified), the TGI with SK-MEL-28 melanoma, in the test with EKVX NSCLC, with SF-539 CNS, in the test on OVCAR-8 ovarian, with SNB-19 CNS and in the test with SF-268 CNS was > 100 µM each time. In addition, the TGI with HCC-2998 colon, with OVCAR-5 ovarian, in the test on HCT-116 colon, with OVCAR-3 ovarian, in the test on SF-295 CNS and in the test on NCI-H460 lung was > 100 µM in each case. Also, the TGI in the test with SNB-75 CNS, in the test on HOP-62 NSCLC and in the test with KM12 colon was > 100 µM throughout.
As to `CC(CCC(=O)O)C1CCC2C3C(O)CC4CC(O)CCC4(C)C3CC(O)C12C` (stereo unspecified), the TGI with SK-MEL-28 melanoma, in the test with EKVX NSCLC, in the test with SF-539 CNS, in the test on OVCAR-8 ovarian, in the test on SNB-19 CNS and in the test with SF-268 CNS was > 100 µM throughout. Moreover, the TGI with SR leukemia, in the test on HCC-2998 colon, in the test with SN12C renal, in the test with OVCAR-5 ovarian, in the test with M14 melanoma and in the test with OVCAR-4 ovarian was > 100 µM throughout. The TGI in the test on HCT-116 colon, in the test with SK-MEL-5 melanoma, in the test on OVCAR-3 ovarian, in the test on SF-295 CNS, with NCI-H460 lung and in the test with SNB-75 CNS was > 100 µM in each case. In addition, the TGI with HOP-62 NSCLC and with KM12 colon was > 100 µM in each case.
Turning to `CN1CCN(c2cc(-c3cc4ccccc4o3)oc(=O)c2C#N)CC1`, the TGI in the test with SK-MEL-28 melanoma, in the test with EKVX NSCLC, with SF-539 CNS, in the test with OVCAR-8 ovarian, with SNB-19 CNS and with SF-268 CNS was > 100 µM throughout. Besides, the TGI with SR leukemia, with HCC-2998 colon, with SN12C renal, in the test on OVCAR-5 ovarian, with M14 melanoma and in the test on OVCAR-4 ovarian was > 100 µM each time. For the same molecule, the TGI in the test with HCT-116 colon, with SK-MEL-5 melanoma, in the test with SF-295 CNS, with NCI-H460 lung, in the test on SNB-75 CNS and with KM12 colon was > 100 µM throughout.
